This is an account of results in publication PMC11203799, “Determining the Affinity and Kinetics of Small Molecule Inhibitors of Galectin-1 Using Surface Plasmon Resonance” (International Journal of Molecular Sciences, 2024).

One assay deals with T1, mouse galectin-1 (Mus musculus, UniProt P16045).
T1 construct: mouse galectin-1 (residues M1-E135); His-tag; made in house; host or cells: E. coli BL21
In words: SPR binding assay, mouse galectin-1. As to the method:
(§1) For SPR studies, His-tagged proteins were expressed in E. coli strain BL21 (human galectin-1 (residues M1-D135) and mouse galectin-1 (residues M1-E135)) and purified as previously described. SDS-PAGE and mass spectrometry were used to confirm protein purity with all proteins stored at −80 °C until use. Human and mouse proteins for FP were produced as previously described.
(§2) The SPR method previously described for galectin-3 proteins was used here for galectin-1 [10]. Briefly, CM3 sensor chip surfaces (Cytiva, Marlborough, MA, USA) were pre-primed and equilibrated in immobilization buffer (10 mM HEPES, 150 mM NaCl (pH 7.4)) using an Amine Coupling Kit (Cytiva, Marlborough, MA, USA) prior to the immobilization of protein (injected at 10 µg/mL in PBS at pH 6.0). […] Chips surfaces were blocked with ethanolamine HCl (pH 8.5) for 420 s upon reaching the immobilization required. Then, EDC/NHS and ethanolamine were used to treat blank surfaces that were protein-free. Running buffer (RB) was used to dilute compounds (10 mM HEPES, 150 mM NaCl, 1 mM DTT, 0.05% Tween 20, 5% DMSO (pH 7.4)), pre-filtered, degassed, and then injected for 1 min at a flow rate of 30 μL/min. […] Following each cycle, the chip surface was auto-regenerated and aided by fast compound off-rates, and a further wash set was completed in RB. […]
For orientation: SPR reads the build-up and loss of mass on a sensor chip optically.

Assay [1] concerns the target T2, human galectin-1 (Homo sapiens, UniProt P09382).
T2 construct: human galectin-1 (residues M1-D135); His-tag; made in house; host or cells: E. coli BL21
In words: SPR binding assay, human galectin-1. As for the experimental part: as §1, §2

In assay [2] the target is T2, human galectin-1. Briefly: Fluorescence polarization (FP) binding assay, galectin-1. The note with it: human vs mouse galectin-1. As to the method: as §1
For orientation: Polarisation of emitted light reports the rotation of a fluorescent probe.

pKd: −log10 of the molar value.

The pKd is −log10 of the Kd, conventionally taken in molar units.

T2 sequence (P09382 whole entry, the tested form may be a part): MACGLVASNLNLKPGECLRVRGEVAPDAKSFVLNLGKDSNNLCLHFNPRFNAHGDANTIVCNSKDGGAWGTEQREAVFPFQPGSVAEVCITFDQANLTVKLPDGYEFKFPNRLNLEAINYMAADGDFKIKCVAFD
T1 sequence (P16045 whole entry, the tested form may be a part): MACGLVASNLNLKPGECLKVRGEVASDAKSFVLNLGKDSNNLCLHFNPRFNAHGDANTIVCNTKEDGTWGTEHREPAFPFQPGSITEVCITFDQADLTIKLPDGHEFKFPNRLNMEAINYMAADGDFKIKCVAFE

As to `OC[C@H]1O[C@@H](S[C@@H]2O[C@H](CO)[C@H](O)[C@H](n3cc(-c4cccc(F)c4)nn3)[C@H]2O)[C@H](O)[C@@H](n2cc(-c3cccc(F)c3)nn2)[C@H]1O` [Compound 1, GB0139], the pKd at mouse galectin-1 (koff/kon, 1:1 Langmuir model, 25 °C, read-out: kinetic KD in SPR) is 6.88.

Consider `OC[C@H]1O[C@H](Sc2cc(Cl)c(F)c(Cl)c2)[C@H](O)[C@@H](n2cc(-c3nccs3)nn2)[C@H]1O` [Compound 4, GB1490], for which the “Fold KD Differences SPR Human vs. Mouse Gal-1” value at human galectin-1 [1] (SPR assay, human vs mouse galectin-1) came to 0.6 fold. Also, the “Fold KD Differences Human Gal-1 FP vs. SPR” value at human galectin-1 [1] (human galectin-1, FP vs SPR assay format) is 1.8 fold. The “Fold KD Differences Mouse Gal-1 FP vs. SPR” value on mouse galectin-1 (FP vs SPR assay format) turned out to be 1.6 fold. In addition, on human galectin-1 [2], the “Fold KD Differences FP Human vs. Mouse Gal-1” value came out at 0.6 fold.
